# Measurements published in patent publication US20190233884A1 (University of Southern California, priority 2016, published 2019).
# Test system: patients with refractory metastatic colorectal cancer (mCRC)
# Assay: PFS, OS and disease control in the testing (validation) cohort of refractory mCRC patients receiving TAS-102 (n=129, Italy), by baseline characteristics, SNP genotype and toxicity
# Assay type: in vivo, human
# Experimental: All patients underwent the treatment in salvage-line setting. […]
# (§1) Genomic DNA was extracted from peripheral whole blood in patients of all cohorts using the QIAmp Kit (Qiagen, Valencia, Calif., USA) according to the manufacturer's protocol (www.qiagen.com). The candidate SNPs were genotyped using PCR-based direct DNA sequence analysis by ABI 3100A Capillary Genetic Analyzer and Sequencing Scanner v1.0 (Applied Biosystems). Amplification of extracted DNA was carried out using both forward and reverse primers for each gene polymorphism as shown in Table 1. […] The investigators analyzing SNPs were blinded to the clinical data of the study patients.
# The primary endpoint in this study was progression-free survival (PFS), and the secondary endpoints were overall survival (OS) and disease control rate (DCR). PFS was calculated from the date of starting treatment to the first observation of disease progression or death from any cause. If a patient had no disease progression or death, PFS was censored at the date of last follow up. OS was calculated from the date of starting treatment until the date of death from any cause or the date of the last follow-up, at which point OS was censored. The disease control rate (DCR) was defined as the proportion of patients who achieved a stable disease (SD) or […] according to RECISTv1.1. Chi-square test was used to examine the difference in baseline patient characteristics among the three cohorts. Allelic distribution of all SNPs by ethnicity for deviation from Hardy-Weinberg equilibrium and the allelic frequencies of SNPs were tested using the Chi-square tests with one degree of freedom. The associations between candidate SNPs and disease control, and toxicities were examined using contingency tables and Fisher's exact test. The associations of SNPs with PFS and OS were analysed using Kaplan-Meier curves and the log-rank test. Because the true mode of inheritance of candidate SNPs was not established yet, a codominant or dominant genetic model if appropriate was considered.
# All patients underwent the treatment in salvage-line setting. […] In all patients, adverse events were graded according to the Common Terminology Criteria for Adverse Events, version 4.0. […]
# as §1, with “tested” for “genotyped”, “Biosystems).” for “Biosystems). Amplification of extracted DNA was carried out using both forward and reverse primers for each gene polymorphism as shown in Table 1.”, “data.” for “data of the study patients.”
# The primary endpoint in this study was progression-free survival (PFS), and the secondary endpoints were overall survival (OS) and disease control rate (DCR).
# [1] = validation cohort, Performance status ECOG 1+ vs ECOG 0 (Ref.), univariate
# [2] = validation cohort, Peritoneal No
# [3] = validation cohort, Peritoneal No vs Yes (Ref.), univariate
# [4] = validation cohort, Peritoneal Yes
# [5] = validation cohort, Pre-chemo numbers <4
# [6] = validation cohort, Pre-chemo numbers ≥4
# [7] = validation cohort, Pre-chemo numbers ≥4 vs <4 (Ref.), univariate
# [8] = validation cohort, Previous anti-EGFR No
# [9] = validation cohort, Previous anti-EGFR No vs Yes (Ref.), univariate
# [10] = validation cohort, Previous anti-EGFR Yes
# [11] = validation cohort, Previous anti-VEGF No
# [12] = validation cohort, Previous anti-VEGF No vs Yes (Ref.), univariate
# [13] = validation cohort, Previous anti-VEGF Yes
# [14] = validation cohort, Primary tumor resection No
# [15] = validation cohort, Primary tumor resection No vs Yes (Ref.), univariate
# [16] = validation cohort, Primary tumor resection Yes
# [17] = validation cohort, Prior REGORA No
# [18] = validation cohort, Prior REGORA No vs Yes (Ref.), univariate
# [19] = validation cohort, Prior REGORA Yes
# [20] = validation cohort, RAS status Mutant
# [21] = validation cohort, RAS status Mutant vs Wild type (Ref.), univariate
# [22] = validation cohort, RAS status Wild type
# [23] = validation cohort, Sex Female vs Male (Ref.), univariate
# [24] = validation cohort, Time to metastasis Metachronous
# [25] = validation cohort, Time to metastasis Metachronous vs Synchronous (Ref.), univariate
# [26] = validation cohort, Time to metastasis Synchronous
# [27] = validation cohort, Tumor site Left
# [28] = validation cohort, Tumor site Left vs Right (Ref.), univariate
# [29] = validation cohort, Tumor site Right
# [30] = validation cohort, XRCC3 rs861539 A/A
# [31] = validation cohort, XRCC3 rs861539 A/A vs Any G (Ref.), multivariable
# [32] = validation cohort, XRCC3 rs861539 A/A vs Any G (Ref.), univariate
# [33] = validation cohort, XRCC3 rs861539 A/A vs G/G (Ref.), multivariable
# [34] = validation cohort, XRCC3 rs861539 A/A vs G/G (Ref.), univariate
# [35] = validation cohort, XRCC3 rs861539 Any A
# [36] = validation cohort, XRCC3 rs861539 Any A vs G/G (Ref.), multivariable
# [37] = validation cohort, XRCC3 rs861539 Any A vs G/G (Ref.), univariate
# [38] = validation cohort, XRCC3 rs861539 Any G
# [39] = validation cohort, XRCC3 rs861539 G/A
# [40] = validation cohort, XRCC3 rs861539 G/A vs G/G (Ref.), multivariable
# [41] = validation cohort, XRCC3 rs861539 G/A vs G/G (Ref.), univariate
# [42] = validation cohort, XRCC3 rs861539 G/G
# [43] = validation cohort, ATM rs609429 any G allele
# [44] = validation cohort, ATM rs609429 any G vs C/C, univariate
# [45] = whole testing (validation) cohort
substance,measurement,setting,value
Trifluridine/tipiracil [TAS-102],HR OS,[1],2.15
same,HR PFS,[1],1.43
same,Median OS,[2],9.0 months
same,Median PFS,[2],2.0 months
same,HR OS,[3],0.80
same,HR PFS,[3],0.74
same,Median OS,[4],5.3 months
same,Median PFS,[4],1.9 months
same,Median OS,[5],5.1 months
same,Median PFS,[5],1.9 months
same,Median OS,[6],8.7+ months
same,Median PFS,[6],2.1 months
same,HR OS,[7],0.57
same,HR PFS,[7],0.66
same,Median OS,[8],4.4 months
same,Median PFS,[8],1.9 months
same,HR OS,[9],2.63
same,HR PFS,[9],1.53
same,Median OS,[10],8.8+ months
same,Median PFS,[10],2.1 months
same,Median OS,[11],6.6+ months
same,Median PFS,[11],2.8 months
same,HR OS,[12],0.60
same,HR PFS,[12],0.67
same,Median OS,[13],5.5 months
same,Median PFS,[13],2.0 months
same,Median OS,[14],3.9 months
same,Median PFS,[14],1.8 months
same,HR OS,[15],1.87
same,HR PFS,[15],2.13
same,Median OS,[16],9.0 months
same,Median PFS,[16],2.0 months
same,Median OS,[17],5.4 months
same,Median PFS,[17],2.0 months
same,HR OS,[18],1.36
same,HR PFS,[18],1.20
same,Median OS,[19],8.7+ months
same,Median PFS,[19],2.0 months
same,Median OS,[20],5.1 months
same,Median PFS,[20],1.9 months
same,HR OS,[21],1.48
same,HR PFS,[21],1.21
same,Median OS,[22],8.8+ months
same,Median PFS,[22],2.0 months
same,Median OS,"validation cohort, Sex Female",5.3 months
same,Median PFS,"validation cohort, Sex Female",2.1 months
same,HR OS,[23],1.22
same,HR PFS,[23],0.98
same,Median OS,"validation cohort, Sex Male",9.0 months
same,Median PFS,"validation cohort, Sex Male",1.9 months
same,Median OS,[24],8.5+ months
same,Median PFS,[24],2.0 months
same,HR OS,[25],0.59
same,HR PFS,[25],0.75
same,Median OS,[26],5.2 months
same,Median PFS,[26],1.9 months
same,Median OS,[27],9.0 months
same,Median PFS,[27],2.0 months
same,HR OS,[28],0.78
same,HR PFS,[28],1.07
same,Median OS,[29],5.1 months
same,Median PFS,[29],1.9 months
same,"Disease Control CR/PR/SD, patients n (%)",[30],3 (12%)
same,Median OS (95% CI),[30],"4.2 (3.6, 8.8+) months"
same,Median PFS (95% CI),[30],"1.9 (1.8, 2.0) months"
same,"PD, patients n (%)",[30],22 (88%)
same,HR OS (95% CI),[31],"1.05 (0.56, 1.97)"
same,HR PFS (95% CI),[31],"1.30 (0.81, 2.09)"
same,HR OS (95% CI),[32],"1.29 (0.70, 2.39)"
same,HR PFS (95% CI),[32],"1.37 (0.86, 2.18)"
same,HR OS (95% CI),[33],"0.93 (0.46, 1.88)"
same,HR PFS (95% CI),[33],"1.26 (0.74, 2.14)"
same,HR OS (95% CI),[34],"1.13 (0.57, 2.22)"
same,HR PFS (95% CI),[34],"1.34 (0.80, 2.25)"
same,"Disease Control CR/PR/SD, patients n (%)",[35],19 (26%)
same,Median OS (95% CI),[35],"5.8 (4.1, 9.0+) months"
same,Median PFS (95% CI),[35],"2.0 (1.9, 2.1) months"
same,"PD, patients n (%)",[35],55 (74%)
same,HR OS (95% CI),[36],"0.84 (0.47, 1.49)"
same,HR PFS (95% CI),[36],"1.05 (0.69, 1.60)"
same,HR OS (95% CI),[37],"0.88 (0.51, 1.54)"
same,HR PFS (95% CI),[37],"1.07 (0.72, 1.61)"
same,"Disease Control CR/PR/SD, patients n (%)",[38],32 (32%)
same,Median OS (95% CI),[38],"5.8 (4.7, 9.0+) months"
same,Median PFS (95% CI),[38],"2.0 (1.9, 2.3) months"
same,"PD, patients n (%)",[38],67 (68%)
same,"Disease Control CR/PR/SD, patients n (%)",[39],16 (33%)
same,Median OS (95% CI),[39],"9.0 (4.6, 9.0+) months"
same,Median PFS (95% CI),[39],"2.0 (1.9, 2.3) months"
same,OS,[39],9.0 months
same,"PD, patients n (%)",[39],33 (67%)
same,HR OS (95% CI),[40],"0.79 (0.41, 1.51)"
same,HR PFS (95% CI),[40],"0.95 (0.59, 1.51)"
same,HR OS (95% CI),[41],"0.75 (0.40, 1.43)"
same,HR PFS (95% CI),[41],"0.96 (0.62, 1.50)"
same,"Disease Control CR/PR/SD, patients n (%)",[42],16 (32%)
same,Median OS (95% CI),[42],"5.5 (3.6, 8.7+) months"
same,Median PFS (95% CI),[42],"2.1 (1.7, 2.5) months"
same,"PD, patients n (%)",[42],34 (68%)
same,OS,[43],not reached
same,PFS,[43],2.0 months
same,HR for OS,[44],0.73
same,HR for PFS,[44],0.78
same,OS,"validation cohort, XRCC3 rs861539 C/C variant (so in the source)",5.5 months
same,HR for OS,"validation cohort, XRCC3 rs861539 G/A vs C/C (so in the source)",0.75
same,Median OS,[45],5.7 months
same,Median PFS,[45],2.0 months
